The values that follow come from US20230348495A1, “A COMPOUND HAVING INHIBITORY ACTIVITY AGAINST KRAS G12D MUTATION” (TAIHO PHARMACEUTICAL CO., LTD., priority 2019, published 2023).

Structures are written as SMILES.

Assay [1] concerns KRAS-G12D mutant cell line (A-427). Kind of assay: Growth inhibition activity on KRAS-G12D mutant cell line (A-427), CellTiter-Glo 3D. It is filed as cell-based. The following applies: Homo sapiens, 72 h, A-427 cells, 3-day culture with compound, read-out: A427 CTX IC50. As for the experimental part: Test Example 2: A measurement test of growth inhibition activity on KRAS-G12D mutant cell line (A-427) (in vitro) A-427 cells (ATCC, Cat #: HTB-53), which are a KRAS-G12D mutant human lung cancer cell line, were suspended in a 10% fetal bovine serum-containing E-MEM medium (manufactured by Fujifilm Wako Pure Chemical Corporation). The cell suspension was seeded into each well of a 384-well U bottom microplate and cultured in an incubator containing 5% CO2 gas at 37° C. for 1 day.
The compound of the present invention was dissolved in DMSO, and the test compound was diluted with DMSO to give a concentration 500 times the final concentration. The solution of the test compound in DMSO was diluted with the medium used for suspending cells and added to each well of the cell-culture plate to give a DMSO final concentration of 0.2%, followed by culture in an incubator containing 5% CO2 gas at 37° C. for another 3 days. The cell count after a 3-day culture in the presence of the compound was measured using CellTiter-Glo 3D Reagent (manufactured by Promega Corporation).
All wells were added with CellTiter-Glo 3D Reagent and mixed for 10 minutes. 30 minutes after mixing, luminescence was measured by a plate reader. The growth inhibition rate was calculated from the following equation, and the concentration of the test compound at which 50% inhibition was achieved (IC50 (μM)) was determined.
Growth Inhibition Rate(%)=(C−T)/(C)×100
T: the emission intensity in a well into which a test compound was added.
C: the emission intensity in a well into which a test compound was not added.
Background: ATP-based viability assays read luminescence as a measure of living cells.

Assay [2] deals with KRAS G12D (Homo sapiens (Human), UniProt P01116, G12D). Briefly: Inhibitory activity on KRAS G12D nucleotide (GDP-GTP) exchange reaction in vitro (SOS1-dependent, BODIPY FL GDP). It is filed as biochemical. Conditions: BODIPY FL GDP-bound KRAS G12D, compound 25° C. 1 hour, then SOS1 and GMPPNP 30 minutes. The source says:
Test Example 1: Evaluation of inhibitory activity of compounds on KRAS G12D nucleotide (GDP-GTP) exchange reaction in vitro
Recombinant KRAS G12D (conjugated N-terminus His6-tag, TEV protease cleavage site and KRAS G12D residues 1-169 (SEQ ID NO: 1), prepared by the method described as below) and cleaved recombinant SOS1 (residues 564-1049(SEQ ID NO: 2), prepared by the method as below) proteins were expressed in E. coli and purified by affinity chromatography.
To prepare the recombinant KRAS G12D, the codon-optimized DNA sequence for the recombinant KRAS G12D (conjugated N-terminus His6-tag, TEV protease cleavage site and KRAS G12D residues 1-169 (SEQ ID NO: 3))was synthesized by GeneArt Technology (Life Technologies, Carlsbad, CA, US). The construct was subcloned into the expression vector pET28a and transformed into Escherichia coli BL21 (DE3) strains (Novagen, Madison, WI, US).
The transformed strain was cultivated in 2 L Luria Broth medium with 25 μg/mL kanamycin at a temperature of 37° C. to a density of 0.6 (OD600), then induced for expression with […] IPTG and further cultivated for 4 h. The cell pellet was resuspended in ice-cold lysis buffer containing 50 mM Tris-HCl (pH 7.5), 200 mM NaCl, and 100 μM TCEP (tris(2-carboxyethyl)phosphine).
After sonication, the disrupted debris was removed by centrifugation. The supernatant was applied on to Ni-NTA affinity gels, and the recombinant human KRAS (G12D) eluted fraction was collected. The buffer of the collected fraction was exchanged to the buffer containing 50 mM Tris-HCl (pH 7.5), 200 mM NaCl, 10% Glycerol, and 5 mM DTT by PD-10 column (GE-Healthcare, Chicago, IL, US).
To prepare the cleaved recombinant SOS1, the codon optimized DNA sequences for the recombinant SOS1 (residues 564-1049 with a conjugated N-terminus His6-tag and TEV protease cleavage site (SEQ ID NO: 4)) was synthesized by GeneArt Technology (Life Technologies). The construct was subcloned into the expression vector pET28a and transformed into Escherichia coli BL21 (DE3) strains (Novagen, Madison, WI, USA).
The transformed strain was cultivated in 2 L Terrific Broth medium with 25 μg/mL kanamycin at a temperature of 37° C. to a density of 0.8 (OD600), then shifted to a temperature of 16° C., induced for expression with […] IPTG, and further cultivated for 16 h. The cell pellet was resuspended in ice-cold lysis buffer containing 50 mM Tris-HCl (pH 7.5), 200 mM NaCl, and 100 μM TCEP.
After sonication, the disrupted debris was removed by centrifugation. The supernatant was applied on to Ni-NTA affinity gels, and the recombinant human SOS1 eluted fraction was collected. Then, His6-tagged TEV protease was added to the collected fraction, dialyzed with the ice-cold lysis buffer for 16 h at a temperature of 4° C., and applied on to Ni-NTA affinity gels. The flow-through fraction containing the tag-cleavaged recombinant human SOS1 was collected. The buffer of the collected fraction was exchanged to the buffer containing 50 mM Tris-HCl (pH 7.5), 200 mM NaCl, 10% Glycerol, and 5 mM DTT by PD-10 column (GE-Healthcare).
To prepare BODIPY FL (fluorescent dye) GDP-bound KRAS G12D protein, 50 μM KRAS G12D protein was incubated with 0.5 mM BODIPY FL GDP in a loading buffer (20 mM Tris-HCl (pH 7.5), 50 mM NaCl, 1 mM DTT and 2.5 mM EDTA) for 1 hour on ice. After the incubation, MgCl2 was added to a final concentration of 10 mM, followed by incubation at room temperature for 30 minutes.
The mixture was allowed to pass through a NAP-5 column to remove free nucleotides and purified BODIPY FL GDP-bound KRAS G12D protein was used for compound evaluation.
For the measurement of the inhibitory activity of compounds on GDP-GTP exchange rate of recombinant KRAS G12D, BODIPY FL GDP-bound KRAS G12D protein was incubated with various concentrations of compound in a reaction buffer (20 mM Tris-HCl (pH 7.5), 100 mM NaCl, 1 mM MgCl2, 2 mM DTT, 0.1% Tween 20) at 25° C. for 1 hour. […]

Sequence of KRAS G12D (P01116 other isoform, or with tags, fused parts or gaps G12D (already in the parent)): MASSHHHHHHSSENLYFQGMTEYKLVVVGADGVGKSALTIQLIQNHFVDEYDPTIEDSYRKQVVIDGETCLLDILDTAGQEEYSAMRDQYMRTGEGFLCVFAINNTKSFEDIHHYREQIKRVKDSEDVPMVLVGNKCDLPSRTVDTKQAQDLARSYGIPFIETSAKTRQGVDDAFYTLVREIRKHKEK

Regarding `Cc1cccc2cc(O)cc(N3CCc4c(nc(OCC5(CN(C)C)CC5)nc4N4CC5CCC(C4)N5)C3)c12` [Example 4, 4-(4-(3,8-diazabicyclo[3.2.1]octan-3-yl)-2-((1-((dimethylamino)methyl)cyclopropyl)methoxy)-5,8-dihydropyrido[3,4-d]pyrimidin-7(6H)-yl)-5-methylnaphthalen-2-ol], the figures for the IC50 in assay [1] and in assay [2] were 1170 nM and 1.5 nM, respectively. The corresponding values for `CN(C)[C@@H]1CC[C@@H]1COc1nc(N2CC3CCC(C2)N3)c2ccc(-c3cc(O)cc4ccccc34)c(F)c2n1` (relative stereo) [Example 17, 4-(4-(3,8-diazabicyclo[3.2.1]octan-3-yl)-2-((cis-2-(dimethylamino)cyclobutyl)methoxy)-8-fluoroquinazolin-7-yl)naphthalen-2-ol] are 1290 nM and 14.6 nM.

With `CN1CCC[C@H]1COc1nc2c(c(N3CC4CCC(C3)N4)n1)CCN(c1cc(O)cc3cccc(Br)c13)C2` [Example 31, 4-(4-(3,8-diazabicyclo[3.2.1]octan-3-yl)-2-(((S)-1-methylpyrrolidin-2-yl)methoxy)-5,8-dihydropyrido[3,4-d]pyrimidin-7(6H)-yl)-5-bromonaphthalen-2-ol], the IC50 in assay [1] came to 1950 nM; in assay [2], 17.7 nM. Take `CN1C[C@H](F)C[C@H]1COc1nc2c(c(N3CC4CCC(C3)N4)n1)CCN(c1cc(O)cc3cccc(Br)c13)C2` [Example 27, 4-(4-(3,8-diazabicyclo[3.2.1]octan-3-yl)-2-(((2S,4R)-4-fluoro-1-methylpyrrolidin-2-yl)methoxy)-5,8-dihydropyrido[3,4-d]pyrimidin-7(6H)-yl)-5-bromonaphthalen-2-ol]: the figures for the IC50 in assay [1] and in assay [2] were 650 nM and 18.5 nM, respectively.

With `CN(C)CC1(COc2nc(N3CC4CCC(C3)N4)c3ccc(-c4cc(O)cc5ccccc45)c(F)c3n2)CC1` [Example 15, 4-(4-(3,8-diazabicyclo[3.2.1]octan-3-yl)-2-((1-((dimethylamino)methyl)cyclopropyl)methoxy)-8-fluoroquinazolin-7-yl) naphthalen-2-ol], the values for the IC50 in assay [1] and in assay [2] were 1360 nM and 4.7 nM, respectively. Consider `CN(C)CC1(COc2nc3c(c(N4CC5CCC(C4)N5)n2)CCN(c2cc(O)cc4cccc(Br)c24)C3)CC1` [Example 1, 4-(4-(3,8-diazabicyclo[3.2.1]octan-3-yl)-2-((1-((dimethylamino)methyl)cyclopropyl)methoxy)-5,8-dihydropyrido[3,4-d]pyrimidin-7(6H)-yl)-5-bromonaphthalen-2-ol], for which the IC50 in assay [1] was 1170 nM; in assay [2] it was 0.8 nM. For the molecule `CN(C)CC1(COc2nc3c(c(N4CC5CCC(C4)N5)n2)CCN(c2cccc4cccc(Br)c24)C3)CC1(F)F` (centres unmarked) [Example 29, 1-(1-(((4-(3,8-diazabicyclo[3.2.1]octan-3-yl)-7-(8-bromonaphthalen-1-yl)-5,6,7,8-tetrahydropyrido[3,4-d]pyrimidin-2-yl)oxy)methyl)-2,2-difluorocyclopropyl)-N,N-dimethylmethanamine], the results for the IC50 in assay [1] and in assay [2] were 1260 nM and 37.8 nM, respectively. As to `CN(C)CC1(COc2nc3c(c(N4CC5CCC(C4)N5)n2)CCN(c2cc(O)cc4cccc(Br)c24)C3)CC1(C)C` (centres unmarked) [Example 30, 4-(4-(3,8-diazabicyclo[3.2.1]octan-3-yl)-2-((1-((dimethylamino)methyl)-2,2-dimethylcyclopropyl)methoxy)-5,8-dihydropyrido[3,4-d]pyrimidin-7(6H)-yl)-5-bromonaphthalen-2-ol], the IC50 is 1380 nM in assay [1] and 11.7 nM in assay [2]. With `C=Cc1cccc2cc(O)cc(C(=O)N3Cc4nc(OCC5(CN6CCOCC6)CC5)nc(N5CC6CCC(C5)N6)c4C3)c12` [Example 35, (4-(3,8-diazabicyclo[3.2.1]octan-3-yl)-2-((1-(morpholinomethyl)cyclopropyl)methoxy)-5,7-dihydro-6H-pyrrolo[3,4-d]pyrimidin-6-yl) (3-hydroxy-8-vinylnaphthalen-1-yl) methanone], the IC50 in assay [1] came out at 8840 nM; in assay [2], 13.5 nM. Regarding `CN(C)CC1(COc2nc3c(c(N4CC5CCC(C4)N5)n2)CCN(c2cc(O)cc4cccc(Br)c24)C3)CC1(F)F` (centres unmarked) [Example 21, 4-(4-(3,8-diazabicyclo[3.2.1]octan-3-yl)-2-((1-((dimethylamino)methyl)-2,2-difluorocyclopropyl)methoxy)-5,8-dihydropyrido[3,4-d]pyrimidin-7(6H)-yl)-5-bromonaphthalen-2-ol], the figures for the IC50 in assay [1] and in assay [2] were 540 nM and 9.7 nM, respectively. In turn, `Ic1cccc2cccc(N3CCc4c(nc(OCC5(CN6CCOCC6)CC5)nc4N4CC5CCC(C4)N5)C3)c12` [Example 25, 4-((1-(((4-(3,8-diazabicyclo[3.2.1]octan-3-yl)-7-(8-iodonaphthalen-1-yl)-5,6,7,8-tetrahydropyrido[3,4-d]pyrimidin-2-yl)oxy)methyl)cyclopropyl)methyl)morpholine] registered an IC50 in assay [2] of 39.8 nM. `CN1CCC[C@@H]1COc1nc2c(c(N3CC4CCC(C3)N4)n1)CCN(c1cc(O)cc3cccc(Br)c13)C2` [Example 26, 4-(4-(3,8-diazabicyclo[3.2.1]octan-3-yl)-2-(((R)-1-methylpyrrolidin-2-yl)methoxy)-5,8-dihydropyrido[3,4-d]pyrimidin-7(6H)-yl)-5-bromonaphthalen-2-ol]: in assay [2], the IC50 was 19.9 nM. On to `Oc1cc(N2CCc3c(nc(OCC4(CN5CCOCC5)CC4)nc3N3CC4CCC(C3)N4)C2)c2c(Br)cccc2c1` [Example 3, 4-(4-(3,8-diazabicyclo[3.2.1]octan-3-yl)-2-((1-(morpholinomethyl)cyclopropyl)methoxy)-5,8-dihydropyrido[3,4-d]pyrimidin-7 (6H)-yl) -5-bromonaphthalen-2-ol], for which, in assay [1], the IC50 was 590 nM.

In general, IC50 refers to the concentration that gives 50% inhibition.
